SMILES strings stand for the structures. Where two headings read alike, the source gives them in different places.

For experiment [1], the system named is Swiss-Webster male mice. Nature of the experiment: Mouse Activity and Screen Test (MAST): inhibition of spontaneous locomotor activity. It is filed as in vivo. Particulars: 1 hour prior to testing. The protocol:
Nine unfasted Swiss-Webster male mice weighing 20-30 g are equally divided into three groups for each drug dose to be tested. That is, data for each dose level was generated by three separate groups of three mice each. A minimum of three dose levels (10, 30, and 100 mg/kg) are tested for each drug. Treatments are administered intraperitoneally one hour prior to testing. All dosages are calculated as parent compound and given in volumes of 10 ml/kg. Compounds are dissolved or suspended in 0.2% Methocel. Control animals are injected with Methocel. Immediately following the screen test, the final phase of testing is initiated by placing each group of three mice in one actophotometer (Life Sciences, 22, 1067-1076, 1978). The actophotometer consists of a cylindrical chamber whose center is occupied by another cylinder which contains the illumination for six photocells located on the perimeter of the chamber. Six light-beam interruptions equal one count. Locomotor activity is recorded by computer at ten minute intervals for 60 minutes. Data: The data obtained from the screen test are expressed as percent of mice falling off the screen. Data derived from locomotor activity of drug treated mice are compared to the activity of vehicle treated animals and are expressed as percent inhibition of spontaneous locomotion. All percentages reported for inhibition of locomotion (LI) are based upon data accumulated for one hour. Both phases of testing are graded: A=60-100%; C=31-59%; and N=0-30%. An overall dose rating is obtained by the following criteria: […]

The target of experiment [2] is T1, adenosine A1 receptor (Rattus norvegicus, UniProt P25099).
T1 construct: Whole brain minus cerebellum and brainstem from male Long Evans rats (150-200 g) was homogenized; from tissue; host or cells: rat whole brain minus cerebellum and brainstem, male Long Evans
T1 sequence (P25099 1-326): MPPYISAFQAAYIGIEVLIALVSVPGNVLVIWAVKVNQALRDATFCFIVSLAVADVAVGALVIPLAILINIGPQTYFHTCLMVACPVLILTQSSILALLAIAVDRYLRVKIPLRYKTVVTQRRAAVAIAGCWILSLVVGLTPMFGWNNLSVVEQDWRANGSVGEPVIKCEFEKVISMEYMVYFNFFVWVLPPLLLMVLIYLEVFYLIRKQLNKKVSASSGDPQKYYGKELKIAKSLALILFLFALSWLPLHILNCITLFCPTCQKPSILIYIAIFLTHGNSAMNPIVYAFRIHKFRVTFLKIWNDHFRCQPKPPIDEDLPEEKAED
Nature of the experiment: Adenosine A1 receptor binding (RBA-1), displacement of [3H]-CHA. The protocol: Whole brain minus cerebellum and brainstem from male Long Evans rats (150-200 g) was homogenized in 30 volumes of ice-cold 0.05M Tris-HCl buffer pH 7.7 using a Brinkman Polytron PT-10, (setting number 6 for 20 seconds) and centrifuged for ten minutes at 20,000×g (Sorvall RC-2), 4° C. The supernatant was discarded, and the pellet was resuspended and centrifuged as before. The pellet was resuspended in 20 ml Tris-HCl buffer containing two International Units/ml of adenosine deaminase (Sigma type III from calf intestinal mucosa), incubated at 37° C. for 30 minutes, then subsequently at 0° C. for ten minutes. The homogenate was again centrifuged, and the final pellet was resuspended in ice-cold 0.05M Tris-HCl buffer pH 7.7 to a concentration of 20 mg/ml original wet tissue weight and used immediately.
Tissue homogenate (10 mg/ml) was incubated in 0.05M Tris-HCl buffer pH 7.7 containing 1.0 nM [^3 H]-N^6 -cyclohexyladenosine [^3 H]-CHA) with or without test agents in triplicate for one hour at 25° C. Incubation volume was 2 ml. Unbound [^3 H]-CHA was separated by rapid filtration under reduced pressure through Whatman glass fiber (GF/B) filters. The filters were rinsed three times with 5 ml of ice cold 0.05M Tris-HCl buffer pH 7.7. The radio-labeled ligand retained on the filter was measured by liquid scintillation spectrophotometry after shaking the filters for one hour or longer on a mechanical shaker in 10 ml of Beckman Ready-Solv HP scintillation cocktail.
Nonspecific binding was defined as the binding which occurred in the presence of 1 mM theophylline. […] The Scatchard plot was calculated by linear regression of the line obtained by plotting the amount of radioligand bound (pmoles/gram of tissue) versus [formula] Since the amount of radioligand bound was a small fraction of the total amount added, free radioligand was defined as the concentration (nM) of radioligand added to the incubation mixture. The Hill coefficient was calculated by linear regression of the line obtained by plotting the log of the bound radioligand vs the log of the [formula] The maximal number of binding sites (Bmax) was calculated from the Scatchard plot.
A general note: Loss of bound radioactivity is the signal in a displacement assay; it reports binding, not function.

Experiment [3] deals with Swiss-Webster male mice. Description: Mouse Activity and Screen Test (MAST): screen test failure. It is filed as in vivo. Particulars: 1 hour prior to testing. The protocol: Nine unfasted Swiss-Webster male mice weighing 20-30 g are equally divided into three groups for each drug dose to be tested. That is, data for each dose level was generated by three separate groups of three mice each. A minimum of three dose levels (10, 30, and 100 mg/kg) are tested for each drug. Treatments are administered intraperitoneally one hour prior to testing. All dosages are calculated as parent compound and given in volumes of 10 ml/kg. Compounds are dissolved or suspended in 0.2% Methocel. Control animals are injected with Methocel. Testing: A two part testing procedure is started one hour postinjection. First, the screen test (ST) is performed (see Pharmac. Biochem. Behav. 6, 351-353, 1977). Briefly this test consists of placing mice on individual wire screens which are then rotated 180 degrees at the start of a 60 second observation period. The number of mice falling off the inverted screen is recorded. Data: The data obtained from the screen test are expressed as percent of mice falling off the screen. Data derived from locomotor activity of drug treated mice are compared to the activity of vehicle treated animals and are expressed as percent inhibition of spontaneous locomotion. All percentages reported for inhibition of locomotion (LI) are based upon data accumulated for one hour. Both phases of testing are graded: A=60-100%; C=31-59%; and N=0-30%. An overall dose rating is obtained by the following criteria: […]

Where [4] appears, read: 1.0 nM [3H]-CHA, rat whole brain minus cerebellum and brainstem, read-out: RBA-1 (IC50, adenosine A1 receptor affinity).

`CC1(C)OCC(CNc2ncnc3c2ncn3[C@@H]2O[C@H](CO)[C@@H](O)[C@H]2O)O1` (stereo partly drawn) [Example 4, (R,S)-N^6-[2,3Dihydroxypropylisopropylidene]adenosine]: the “Inhibition of Mouse Locomotor Activity” value was 6% in experiment [1] (0.3 mg/kg i.p.); 27% in experiment [1] (1.0 mg/kg i.p.); 23% in experiment [1] (3.0 mg/kg i.p.); 96% in experiment [1] (10 mg/kg i.p.); 93% in experiment [1] (30 mg/kg i.p.); 99% in experiment [1] (100 mg/kg i.p.). Moreover, in experiment [2] (setting [4]), the IC50 amounted to 430 nM. For the same molecule, the “Screen Test Failure” value in experiment [3] (0.3 mg/kg i.p.) is reported as 0%; in experiment [3] (1.0 mg/kg i.p.), 0%; in experiment [3] (3.0 mg/kg i.p.) it was 0%; in experiment [3] (10 mg/kg i.p.), 66%; in experiment [3] (30 mg/kg i.p.), 99%; in experiment [3] (100 mg/kg i.p.), 99%.
`OC[C@@H](O)CNc1ncnc2c1ncn2[C@@H]1O[C@H](CO)[C@@H](O)[C@H]1O` [Example 3]: the “Inhibition of Mouse Locomotor Activity” value is reported as -19% in experiment [1] (0.03 mg/kg i.p.); -18% in experiment [1] (0.1 mg/kg i.p.); 0% in experiment [1] (0.3 mg/kg i.p.); 92% in experiment [1] (1.0 mg/kg i.p.); 97% in experiment [1] (3.0 mg/kg i.p.); 97% in experiment [1] (10 mg/kg i.p.). In addition, the “Inhibition of Mouse Locomotor Activity” value in experiment [1] (30 mg/kg i.p.) is given as 100%. This molecule gave an IC50 in experiment [2] of 46 nM. Moreover, the “Screen Test Failure” value in experiment [3] (0.03 mg/kg i.p.) is 0%; in experiment [3] (0.1 mg/kg i.p.) it was 0%; in experiment [3] (0.3 mg/kg i.p.) it was 0%; in experiment [3] (1.0 mg/kg i.p.), 88%; in experiment [3] (3.0 mg/kg i.p.), 100%; in experiment [3] (10 mg/kg i.p.), 100%. Besides, the “Screen Test Failure” value in experiment [3] (30 mg/kg i.p.) is on record as 100%.
As for `OCC(O)CNc1ncnc2c1ncn2[C@@H]1O[C@H](CO)[C@@H](O)[C@@H]1O` (stereo partly drawn) [Example 1, (R,S)-N^6 [2,3-Dihydroxypropyl]adenosine], the “Inhibition of Mouse Locomotor Activity” value in experiment [1] (0.1 mg/kg i.p.) was 46%; in experiment [1] (0.3 mg/kg i.p.), 96%; in experiment [1] (1.0 mg/kg i.p.), 97%; in experiment [1] (3.0 mg/kg i.p.), 99%; in experiment [1] (10 mg/kg i.p.), 100%; in experiment [1] (30 mg/kg i.p.), 100%. Further, the “Inhibition of Mouse Locomotor Activity” value in experiment [1] (100 mg/kg i.p.) worked out at 99%. Further, the IC50 in experiment [2] (setting [4]) is 9 nM. Besides, the “Screen Test Failure” value in experiment [3] (0.1 mg/kg i.p.) is given as 8%; in experiment [3] (0.3 mg/kg i.p.) it was 100%; in experiment [3] (1.0 mg/kg i.p.) it was 100%; in experiment [3] (3.0 mg/kg i.p.), 100%; in experiment [3] (10 mg/kg i.p.), 100%; in experiment [3] (30 mg/kg i.p.), 100%. The “Screen Test Failure” value in experiment [3] (100 mg/kg i.p.) stood at 100%.
Take `Nc1nc(NCC(O)CO)c2ncn([C@@H]3O[C@H](CO)[C@@H](O)[C@H]3O)c2n1` (stereo partly shown) [Example 8]: the “Inhibition of Mouse Locomotor Activity” value in experiment [1] (0.3 mg/kg i.p.) is given as 56%; in experiment [1] (1.0 mg/kg i.p.), 98%; in experiment [1] (3.0 mg/kg i.p.), 98%; in experiment [1] (10 mg/kg i.p.), 99%; in experiment [1] (30 mg/kg i.p.), 100%; in experiment [1] (100 mg/kg i.p.) it was 99%. For the same molecule, in experiment [2] (setting [4]), the IC50 was 34 nM. The “Screen Test Failure” value in experiment [3] (0.3 mg/kg i.p.) is listed as 0%; in experiment [3] (1.0 mg/kg i.p.), 88%; in experiment [3] (3.0 mg/kg i.p.) it was 99%; in experiment [3] (10 mg/kg i.p.), 99%; in experiment [3] (30 mg/kg i.p.) it was 99%; in experiment [3] (100 mg/kg i.p.), 99%.
In the case of `CC1(C)OC[C@@H](CNc2ncnc3c2ncn3[C@@H]2O[C@H](CO)[C@@H](O)[C@H]2O)O1` [Example 5, (R)-N^6-[2,3-Dihydroxypropylisopropylidene]-adenosine], the “Inhibition of Mouse Locomotor Activity” value stood at 40% in experiment [1] (0.3 mg/kg i.p.); 39% in experiment [1] (1.0 mg/kg i.p.); 69% in experiment [1] (3.0 mg/kg i.p.); 48% in experiment [1] (10 mg/kg i.p.); 98% in experiment [1] (30 mg/kg i.p.). In experiment [2] (setting [4]), the IC50 was found to be 440 nM. Further, the “Screen Test Failure” value in experiment [3] (0.3 mg/kg i.p.) came to 0%; in experiment [3] (1.0 mg/kg i.p.) it was 11%; in experiment [3] (3.0 mg/kg i.p.), 11%; in experiment [3] (10 mg/kg i.p.), 77%; in experiment [3] (30 mg/kg i.p.), 100%.

As usually defined, the IC50 is the point on the concentration scale where inhibition reaches its midpoint.
